This is an account of results in patent US9890146B2, “Compound having selective EP2 agonist activity” (ONO PHARMACEUTICAL CO., LTD., priority 2014, dated 2018).

This assay concerns male monkey (a cynomolgus monkey). Briefly: Intraocular pressure lowering activity after ocular instillation. The format is in vivo. The conditions noted are these: Primates, in Macaca fascicularis, topical, maximum rate during 24 hours after ocular instillation of 30 μL, conscious monkey; for inhibition in vivo at 10 µg/mL: administration concentration 10 μg/mL; for inhibition in vivo at 3 µg/mL: administration concentration 3 μg/mL. The method, then:
As can be easily understood by a person skilled in the art, in an in vivo test, since regarding all test compounds, carboxylic acid which is an active body has poor corneal permeability, pharmacological action of the active body was evaluated by ocular instillation administration of a compound which had been converted into an ester such as an ethyl ester or an isopropyl ester, or an alcohol.
A test compound-containing solution (30 μL) which had been adjusted to each of various concentrations was ocular instillation-administered to the left or right eye of a male monkey (a cynomolgus monkey) under consciousness. An intraocular pressure after administration was measured with time from administration initiation to after 24 hours. Upon measurement of an intraocular pressure, a cynomolgus monkey was fixed on a monkey chair, and the monkey was anesthetized by ocular instillation-administering an ocular surface anesthetic (Benoxil eye drops 0.4% Santen Pharmaceutical Co., Ltd.). After mounting of a blepharostat (Handaya Co., Ltd.), an intraocular pressure of both eyes was measured (7 to 8 examples per group) using a pneumatic applanation flat tonometer (Model 30 Classic, REICHERT). A difference between an intraocular pressure value before the administration of a test substance and an intraocular pressure value after the administration of the test substance was calculated as an intraocular pressure lowering rate in accordance with the following equation, and the sustainability of intraocular eye lowering action was evaluated using a maximum intraocular pressure lowering rate during measurement.
The administered concentrations were determined based on the EP2 agonist activities measured by the above-mentioned method.

Structures are written as SMILES.

With `OCc1csc([C@H]2CC[C@@H]3[C@@H](COc4ccc5c(c4)CCCC5)[C@@H](O)C[C@@H]3O2)n1` [10(7), (2R,4aR,5S,6S,7aS)-2-[4-(hydroxymethyl)-1,3-thiazol-2-yl]-5-[(5,6,7,8-tetrahydro-2-naphthalenyloxy)methyl]octahydrocyclopenta[b]pyran-6-ol], testing at 10 µg/mL gave an inhibition in vivo of 41%. In the case of `CSc1cc(OC[C@@H]2[C@H]3CC[C@H](c4nc(CO)cs4)O[C@H]3C[C@@H]2O)ccc1C` [10(12), (2R,4aR,5S,6S,7aS)-2-[4-(hydroxymethyl)-1,3-thiazol-2-yl]-5-{[4-methyl-3-(methylthio)phenoxy]methyl}octahydrocyclopenta[b]pyran-6-ol], where the note is “administration concentration 0.3 μg/mL”, the inhibition in vivo (in general, the share of the control response that was lost under treatment) at 0.3 µg/mL was found to be 33%. Regarding `CCc1ccc(OC[C@@H]2[C@H]3CC[C@H](c4nc(CO)cs4)O[C@H]3C[C@@H]2O)cc1C1CC1` [10(15), (2R,4aR,5S,6S,7aS)-5-[(3-cyclopropyl-4-ethylphenoxy)methyl]-2-[4-(hydroxymethyl)-1,3-thiazol-2-yl]octahydrocyclopenta[b]pyran-6-ol], the inhibition in vivo at 3 µg/mL was determined as 37%.

On to `OCc1csc([C@H]2CC[C@@H]3[C@@H](COc4ccc5c(c4)CCCCC5)[C@@H](O)C[C@@H]3O2)n1` [10(16), (2R,4aR,5S,6S,7aS)-2-[4-(hydroxymethyl)-1,3-thiazol-2-yl]-5-[(6,7,8,9-tetrahydro-5H-benzo[7]annulen-2-yloxy)methyl]octahydrocyclopenta[b]pyran-6-ol], for which the inhibition in vivo at 10 µg/mL was determined as 45%. The compound `CCc1ccc(OC[C@@H]2[C@H]3CC[C@H](c4nc(CO)cs4)O[C@H]3C[C@@H]2O)cc1C1CCC1` [10(17), (2R,4aR,5S,6S,7aS)-5-[(3-cyclobutyl-4-ethylphenoxy)methyl]-2-[4-(hydroxymethyl)-1,3-thiazol-2-yl]octahydrocyclopenta[b]pyran-6-ol] showed an inhibition in vivo at 100 µg/mL (administration concentration 100 μg/mL) of 57%. Take `Cc1ccc(OC[C@@H]2[C@H]3CC[C@H](c4nc(CO)cs4)O[C@H]3C[C@@H]2O)cc1Cl` [10(21), (2R,4aR,5S,6S,7aS)-5-[(3-chloro-4-methylphenoxy)methyl]-2-[4-(hydroxymethyl)-1,3-thiazol-2-yl]octahydrocyclopenta[b]pyran-6-ol]: testing at 1 µg/mL (administration concentration 1 μg/mL) gave an inhibition in vivo of 44%.

In the case of `OCc1csc([C@H]2CC[C@@H]3[C@@H](COc4ccc5c(c4F)CCC5)[C@@H](O)C[C@@H]3O2)n1` [10(22), (2R,4aR,5S,6S,7aS)-5-{[(4-fluoro-2,3-dihydro-1H-inden-5-yl)oxy]methyl}-2-[4-(hydroxymethyl)-1,3-thiazol-2-yl]octahydrocyclopenta[b]pyran-6-ol], the inhibition in vivo at 3 µg/mL was 43%. Still for that read-out and setting: the same measure for `CCc1ccc(OC[C@@H]2[C@H]3CC[C@H](c4nc(CO)cs4)O[C@H]3C[C@@H]2O)cc1CC` [10(32), (2R,4aR,5S,6S,7aS)-5-[(3,4-diethylphenoxy)methyl]-2-[4-(hydroxymethyl)-1,3-thiazol-2-yl]octahydrocyclopenta[b]pyran-6-1]: 41%.

As for `OCc1csc([C@H]2CC[C@@H]3[C@@H](COc4ccc(C5CC5)c(C5CC5)c4)[C@@H](O)C[C@@H]3O2)n1` [Example 10, (2R,4aR,5S,6S,7aS)-5-[(3,4-dicyclopropylphenoxy)methyl]-2-[4-(hydroxymethyl)-1,3-thiazol-2-yl]octahydrocyclopenta[b]pyran-6-ol], the inhibition in vivo at 10 µg/mL was 40%.
